US20250222116A1, “PARP-1 DEGRADATION AGENT AND USE THEREOF” (XIZANG HAISCO PHARMACEUTICAL CO., LTD., priority 2021, published 2025)

Assays:
PARP1 [1] = molecular target: T1, PARP1 (Homo sapiens (Human), UniProt P09874); assay: PARP1 protein expression level in MDA-MB-231 cells; assay type: cell-based; settings: 24 hours
Experimental: The cells were collected into a 1.5 mL centrifuge tube, 25 μL of RIPA lysis buffer (containing 1× protease inhibitor cocktail) was added, and the cells were lysed on ice for 15 minutes and centrifuged at 12000 rpm/min at 4° C. for 10 minutes. The supernatant was collected and the protein content was determined using the BCA method. […] DC50 values were calculated using a four-parameter non-linear fitting model in Graphpad 8.3.0 software.

PARP1 [2] = molecular target: T1, PARP1; assay: PARP1 protein expression level in MDA-MB-436 cells; assay type: cell-based; settings: 100 nM, 24 hours
Experimental: (§1) MDA-MB-436 cells were placed in a complete DMEM medium (supplemented with 15% FBS; 10 μg/mL Insulin; 16 μg/mL Glutathione and 1% penicillin-streptomycin solution), and cultured at 37° C. under CO2-free conditions. The cells in the logarithmic growth phase were collected, the cell density was adjusted to 2×10^5 cells/well with the culture medium, and the cells were added to a 6-well cell culture plate at a volume of 1 mL/well. The compound to be tested was prepared to 2-fold the final concentration, 1 mL of the compounds at different concentrations were added to administration wells, a medium containing 0.2% DMSO was added to control wells, and the plate was incubated for 24 hours at 37° C. The cells were collected into a 1.5 mL centrifuge tube, 25 μL of RIPA lysis buffer (containing 1× protease inhibitor cocktail) was added, and the cells were lysed on ice for 15 minutes and centrifuged at 12000 rpm/min at 4° C. for 10 minutes. The supernatant was collected and the protein content was determined using the BCA method. The protein sample to be tested was diluted to 0.8 mg/mL, PARP1 was detected using a fully automated protein expression quantitative analyzer (ProteinSimple), and the internal reference protein was 3-actin (both antibodies were from CST). The software (Compass for SW) of the fully automated protein expression quantitative analyzer was used to process the raw data and calculate the peak area and the PARP1 expression rate relative to the control group.
as §1, with “L-15” for “DMEM”, “mL/well and cultured overnight. On day 2, the” for “mL/well. The”, “group. DC50 values were calculated using a four-parameter non-linear fitting model in Graphpad 8.3.0 software.” for “group.”

[3] = Pharmacokinetic test in rats; assay type: in vivo, SD rats
Experimental: 7.1 Experimental animals: male SD rats, about 220 g, 6-8 weeks old, 6 rats/compound, purchased from Chengdu Ddossy Experimental Animals Co., Ltd.
7.2 Experimental design: on the day of the experiment, 12 SD rats were randomly grouped according to their body weights. The animals were fasted with water available for 12 to 14 h one day before the administration, and were fed 4 h after the administration.
(§2) Before and after the administration, 0.15 mL of blood was taken from the orbit of the animals under isoflurane anesthesia and placed in an EDTAK2 centrifuge tube. The blood was centrifuged at 5000 rpm and 4° C. for 10 min to collect plasma. The blood collection time points for the intravenous administration group and intragastric administration group were: 0, 5 min, 15 min, 30 min, 1 h, 2 h, 4 h, 6 h, 8 h, and 24 h. Before analysis and detection, all samples were stored at −80° C. The samples were analyzed quantitatively by LC-MS/MS.

[4] = Pharmacokinetic test in mice; assay type: in vivo, ICR mice
Experimental: 8.1 Experimental animals: male ICR mice, 20 to 25 g, 18 mice/compound, purchased from Chengdu Ddossy Experimental Animals Co., Ltd.
8.2 Experimental design: on the day of the experiment, 36 ICR mice were randomly grouped according to their body weights. The animals were fasted with water available for 12 to 14 h one day before the administration, and were fed 4 h after the administration.
as §2, with “0.06” for “0.15”, “intravenous” for “intravenous administration”, “0 min,” for “0,”

[5] = system: breast tumor cells MDA-MB-436; assay: MDA-MB-436 cell activity test (CellTiter-Glo, 7 days); assay type: cell-based, human; settings: Homo sapiens
Experimental: Breast tumor cells MDA-MB-436 were purchased from ATCC, the culture medium was Leibovitz's L-15+10% FBS, and the cells were cultured in a CO2-free incubator at 37° C. On day 1, the cells in the exponential growth phase were collected, and the cell suspension was adjusted to 4000 cells/135 μL with the culture medium. 135 μL of the cell suspension was added to each well of a 96-well cell culture plate and incubated overnight. On day 2, compounds at different concentrations were added, and the plate was placed in the incubator and incubated for 7 days. After the culture was completed, according to operation instructions for a CellTiter-Glo kit (Promega, G7573), 75 μL of CTG solution, which was already pre-melted and equilibrated to room temperature, was added to each well, and the mixture was uniformly mixed for 2 minutes using a microplate shaker. The plate was placed at room temperature for 10 minutes, and then […] signal values were determined using an Envision2104 plate reader (PerkinElmer). The inhibition rate was calculated using formula (1), where RLUcompound was the readout of the drug treated group, RLUcontrol was the average value of the solvent control group, and RLUblank was the average value of the cell-free well. The IC50 value was calculated using GraphPad Prism software.

[6] = male, SD, rat, iv, i.v. 2.5 mg/kg, plasma
[7] = male, ICR, mouse, iv, i.v. 2.5 mg/kg, plasma

T1 sequence (P09874 whole entry): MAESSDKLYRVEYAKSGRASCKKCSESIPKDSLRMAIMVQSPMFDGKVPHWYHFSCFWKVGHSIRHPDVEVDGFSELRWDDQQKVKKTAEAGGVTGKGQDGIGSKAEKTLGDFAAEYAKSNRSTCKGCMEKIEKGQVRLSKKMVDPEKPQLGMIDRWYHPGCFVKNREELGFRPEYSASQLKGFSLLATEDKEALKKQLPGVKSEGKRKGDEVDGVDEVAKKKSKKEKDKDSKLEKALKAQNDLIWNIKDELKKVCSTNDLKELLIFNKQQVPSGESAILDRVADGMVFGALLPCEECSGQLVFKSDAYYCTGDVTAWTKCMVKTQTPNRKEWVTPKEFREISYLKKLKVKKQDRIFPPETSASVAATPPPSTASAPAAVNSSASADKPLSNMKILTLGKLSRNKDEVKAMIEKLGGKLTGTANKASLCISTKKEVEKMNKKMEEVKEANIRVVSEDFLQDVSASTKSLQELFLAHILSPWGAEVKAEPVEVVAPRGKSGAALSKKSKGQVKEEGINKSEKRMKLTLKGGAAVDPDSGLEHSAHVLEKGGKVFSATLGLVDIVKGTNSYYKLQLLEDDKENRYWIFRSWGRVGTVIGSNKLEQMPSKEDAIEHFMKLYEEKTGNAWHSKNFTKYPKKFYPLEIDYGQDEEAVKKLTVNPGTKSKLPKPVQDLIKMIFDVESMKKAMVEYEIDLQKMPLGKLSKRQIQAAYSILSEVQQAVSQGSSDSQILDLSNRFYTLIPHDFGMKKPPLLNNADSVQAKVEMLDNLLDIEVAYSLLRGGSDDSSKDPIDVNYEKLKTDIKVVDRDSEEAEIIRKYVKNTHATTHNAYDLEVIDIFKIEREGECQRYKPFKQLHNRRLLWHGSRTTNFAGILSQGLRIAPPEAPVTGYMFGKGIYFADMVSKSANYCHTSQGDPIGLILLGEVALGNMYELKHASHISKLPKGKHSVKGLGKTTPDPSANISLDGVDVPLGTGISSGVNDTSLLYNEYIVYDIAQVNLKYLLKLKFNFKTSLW

Question: For `CCc1cc2ncc(CN3CCN(c4ccc(C(=O)NC5CN(C6CCN(c7ccc8c(c7)C(=O)N(C7CCC(=O)NC7=O)C8=O)CC6)C5)nc4)CC3)cc2[nH]c1=O` (stereo not shown) [Compound 5, N-(1-(1-(2-(2,6-dioxopiperidin-3-yl)-1,3-dioxoisoindolin-5-yl)piperidin-4-yl)azetidin-3-yl)-5-(4-((7-ethyl-6-oxo-5,6-dihydro-1,5-naphthyridin-3-yl)methyl)piperazin-1-yl)picolinamide], which DC50 (PARP1 [1]) is on record?
Answer: The DC50 was 0.12 nM.

Question: Which “PARP1 degradation rate @ 100 nM” value (PARP1 [2]) does the source give for `CCc1cc2ncc(CN3CC=C(c4ccc(C(=O)Nc5cnn(C6CCN(c7ccc8c(c7)C(=O)N(C7CCC(=O)NC7=O)C8=O)CC6)c5)nc4)CC3)cc2[nH]c1=O` (stereo not shown) [Compound 58, N-(1-(1-(2-(2,6-dioxopiperidin-3-yl)-1,3-dioxoisoindolin-5-yl)piperidin-4-yl)-1H-pyrazol-4-yl)-1′-((7-ethyl-6-oxo-5,6-dihydro-1,5-naphthyridin-3-yl)methyl)-1′,2′,3′,6′-tetrahydro-[3,4′-bipyridine]-6-carboxamide] here?
Answer: Its value is 79.6%.

Question: And the pharmacokinetic characteristics [3]?
Answer: The pharmacokinetic characteristics was “good pharmacokinetic characteristics”.

Question: And the F ([3]; i.g. 10 mg/kg)?
Answer: The F was 6.2%.

Question: And the AUC(0-t) [3, 6]?
Answer: The AUC(0-t) was 51400 ng·h/mL.

Question: What about the clearance [3, 6] of the same molecule?
Answer: Its clearance is 0.713 mL/min/kg.

Question: What about the Vd ([3]; male, SD, rat, iv, i.v. 2.5 mg/kg, plasma, read-out: Vdss) of the same molecule?
Answer: The Vd was 0.366 L/kg.

Question: And the AUC(0-t) ([3]; male, SD, rat, po, i.g. 10 mg/kg, plasma)?
Answer: The AUC(0-t) was 12800 ng·h/mL.

Question: What about the pharmacokinetic characteristics [4] of the same molecule?
Answer: The pharmacokinetic characteristics was “good pharmacokinetic characteristics”.

Question: What about the F ([4]; i.g. 10 mg/kg) of the same molecule?
Answer: Its F is 15.6%.

Question: And the AUC(0-t) [4, 7]?
Answer: The AUC(0-t) was 224000 ng·h/mL.

Question: What about the clearance [4, 7] of the same molecule?
Answer: Its clearance is 0.0968 mL/min/kg.

Question: And the Vd ([4]; male, ICR, mouse, iv, i.v. 2.5 mg/kg, plasma, read-out: Vdss)?
Answer: The Vd was 0.189 L/kg.

Question: And the AUC(0-t) ([4]; male, ICR, mouse, po, i.g. 10 mg/kg, plasma)?
Answer: The AUC(0-t) was 140000 ng·h/mL.

Question: And the IC50 ([5]; MDA-MB-436, 168 h, MDA-MB-436 cells, 7 days incubation, read-out: IC50 (nM), MDA-MB-436 cell inhibitory activity)?
Answer: The IC50 was 6 nM.

Question: What about the inhibition at 10 µM ([5]; MDA-MB-436, MDA-MB-436 cells, 10 μM, read-out: Max inh. % 10 μM) of the same molecule?
Answer: Its inhibition at 10 µM is 87.2%.
